Consider twelve compounds from patent publication US20220380310A1, “P2X7R ANTAGONISTS” (priority 2019, published 2022).

This experiment addresses T1, P2X7R (Homo sapiens, UniProt Q99572).
T1 construct: expressed in transfected cells; host or cells: HEK-293
T1 sequence (Q99572 1-595): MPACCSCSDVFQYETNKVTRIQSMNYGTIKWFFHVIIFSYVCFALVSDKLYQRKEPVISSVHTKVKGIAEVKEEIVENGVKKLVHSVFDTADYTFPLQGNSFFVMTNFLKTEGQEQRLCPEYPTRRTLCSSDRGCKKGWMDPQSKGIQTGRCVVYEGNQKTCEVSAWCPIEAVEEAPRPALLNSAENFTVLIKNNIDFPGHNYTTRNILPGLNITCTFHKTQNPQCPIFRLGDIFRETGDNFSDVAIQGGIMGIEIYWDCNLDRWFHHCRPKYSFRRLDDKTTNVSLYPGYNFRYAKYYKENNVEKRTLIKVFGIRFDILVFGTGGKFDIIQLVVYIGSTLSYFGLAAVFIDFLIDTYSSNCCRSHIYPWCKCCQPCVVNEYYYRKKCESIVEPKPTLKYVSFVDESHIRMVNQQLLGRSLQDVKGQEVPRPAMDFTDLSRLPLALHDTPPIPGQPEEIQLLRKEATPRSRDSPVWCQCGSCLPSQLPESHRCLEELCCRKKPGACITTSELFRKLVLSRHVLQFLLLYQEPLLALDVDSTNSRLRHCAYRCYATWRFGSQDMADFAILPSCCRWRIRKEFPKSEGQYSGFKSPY
Put plainly: Yo-Pro-1 uptake assay (Yo-Pro-1 Assay) in HEK-293 cells transiently transfected with P2X7R. Format: cell-based. The settings on record: for remaining activity at 5 µM: HEK293, read-out: Percentage of activity remains in the presence of the compound at 5 μM, P2X7R (Yo-Pro-1 Assay); for IC50: HEK-293 cells transiently transfected with P2X7R, 30 μM bzATP as stimulus, readings 1 hour after stimulation, estimated from dose-response curves. The text has this: Yo-Pro-1 Iodide (Cat. No Y3603 from Fisher Scientific) is a fluorescent DNA-binding dye with a MW of 629 Da. This method is based upon the Yo-Pro-1 entrance to cells through the dilated or “large pore form” of P2X7R and its binding to intracellular DNA whereby it increases its fluorescence intensity (J. Pharmacol. Exp. Ther. 308, 1053-1061). The dye has an absorption spectrum compatible with excitation at 488 nm by argon laser sources and its emission wavelength is in the range of 515-575 nm. This Yo-Pro-1 uptake was measured in HEK-293 cells transiently transfected with P2X7R (J. Biol. Chem. 290, 7930-7942). In Brief, HEK-293 cells were seeded in growth medium at approximately 20,000 cells/well in a 96-well plate on day 1. Transfection was performed on day 2 using Lipofectamine 2000 with the P2X7R DNA plasmid at the concentration of 1.7 μg/ml. The transfection solution was replaced with the growth medium 4 hours later. Fluorescent assays were conducted on day 4. On day 4, the medium was removed, the cells were washed with phosphate buffered saline (PBS) (Cat. No. MT21040CV from Fisher Scientific). Then, 25 μl of PBS were first loaded to each well followed by 25 μl of various test compounds. The third 25 μl of solution contained a mixture of Yo-Pro-1 and stimulus bzATP (2′(3′)-O-(4-Benzoylbenzoyl)adenosine-5′-triphosphate tri(triethylammonium) salt). The final concentration of Yo-Pro-1 was 2.5 μM and of bzATP 30 μM. Fluorescence increases were measured every 30 minutes in a microplate device with excitation at 475 nm and emission wavelength in the range of 500-550 nm. PPADS (Pyridoxalphosphate-6-azophenyl-2′,4′-disulfonic acid tetrasodium) was used as the positive control. The wells with no test compounds added nor bzATP and only containing PBS and Yo-Pro-1 were served as the negative control (N Contl). The positive control (P Contl) wells were the same as N Contl but contained the stimulus, bzATP in this case.
Data used for analysis were from microplate readings 1 hour after bzATP stimulation. The result of each well was first normalized by its corresponding base microplate reading. The base microplate reading was the first reading right after all components were added. Then, the negative control signal was subtracted from. In the negative control, the test compound and the stimulus were replaced by PBS. An average of six highest values of the plate (AVG) were considered as 100% and the value of each well was divided by AVG and presented as the relative values in percentages.
For comparison of the antagonistic effectiveness of the compounds of this invention among P2X receptors, assays were conducted at 5 μM. Among 55 compounds tested, 29 can reduce the P2X7R activity to […] of the normal activity (Table 2).

The mark [1] stands for this setting: compound at 5 μM, 30 μM bzATP stimulus, reading 1 hour after stimulation, transfected HEK-293 cells.

`O=C(CCc1ccccc1)NC1CCCN(c2ccc(S(=O)(=O)NCc3ccco3)cc2)C1` (centres unmarked) [#52]: the IC50 was 2.2 µM. Under setting [1], the remaining activity at 5 µM came out at 36.9%.
On the same counts, the results for `COc1ccc(S(=O)(=O)N2CCCC(NC(=O)CCc3ccccc3)C2)cc1` (centres unmarked) [#2] are 2.8 µM and 15.8%.
On the same counts, the results for `CC(C)(C)OC(=O)N1CCN(c2ccc(S(=O)(=O)N3CCCC(C(=O)NCCc4ccccc4)C3)cc2)CC1` (centres unmarked) [#36] are 11.5 µM and 47.3%.
Turning to `Cc1nc(N=Nc2ccc(S(=O)(=O)[O-])cc2S(=O)(=O)[O-])c(COP(=O)([O-])[O-])c(C=O)c1O.[Na+].[Na+].[Na+].[Na+]` [PPADS, Pyridoxalphosphate-6-azophenyl-2′,4′-disulfonic acid tetrasodium, reference compound], under setting [1], the “Percentage of activity remains in the presence of the compound at 5 μM, P2X7R (Yo-Pro-1 Assay)” value was 0.7%.
As for `NC(=O)c1cc(Br)cc(N2CCOCC2)c1` [#28], the 50% inhibitory concentration (IC50) was 29 µM. Also, the remaining activity at 5 µM under setting [1] worked out at 75.2%.
Take `O=C(CCc1ccccc1)NC1CCCN(c2ccc(S(=O)(=O)N3CCCCC3)cc2)C1` (centres unmarked) [#54]: the 50% inhibitory concentration (IC50) was 1.5 µM. Further, under setting [1], the remaining activity at 5 µM was -9.3%.
On the same counts, the results for `O=C(CCc1ccccc1)NC1CCCN(S(=O)(=O)c2ccc(N3CCCCC3)cc2)C1` (centres unmarked) [#5] are 0.2 µM and -7.3%.
On the same counts, the results for `CS(=O)(=O)c1ccc(N2CCCC(NC(=O)CCc3ccccc3)C2)cc1` (centres unmarked) [#1] are 3.9 µM and 20%.
On the same counts, the results for `O=C(NCCc1ccccc1)C1CCCN(S(=O)(=O)c2ccc(N3CCCC3)cc2)C1` (centres unmarked) [#25] are 5.1 µM and 36.8%.
As for `O=C(CCc1ccccc1)NC1CCCN(S(=O)(=O)c2ccc(N3CCCCC3)c(Cl)c2)C1` (centres unmarked) [#45], the IC50 is 9.3 µM. The remaining activity at 5 µM under setting [1] was 33.1%.
Taken in the same sequence, the figures for `O=C1CCC(N2Cc3c(NC(=O)CCc4ccccc4)cccc3C2=O)C(=O)N1` (centres unmarked) [#16] were 3.6 µM and 26%.
Taken in the same sequence, the figures for `O=C(CCc1ccccc1)NC1CCCN(S(=O)(=O)Cc2ccc(Br)cc2)C1` (centres unmarked) [#8] were 2.1 µM and -14.5%.

Usually IC50 stands for the concentration needed to halve the response being measured.
